Consider five compounds from PubChem BioAssay AID504822 (The Scripps Research Institute Molecular Screening Center, 2011).

Active and inactive are the calls of the source.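 How the source made its calls: active means EC50 for procaspase-7 activation at or below 10 µM; inactive means EC50 above 10 µM.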

For this assay, the target named is Caspase-7 (Homo sapiens) (UniProt P55210). In words: procaspase-7 activation potency, dual candidates – biochemical, absorbance, PC-7 D3A triple mutant, powder samples, late-stage follow-up (AID 504822). To be noted: recombinant procaspase-7 D3A, Ac-DEVD-pNA absorbance.
Chain of Caspase-7 (Homo sapiens) (P55210 whole entry D23A/D198A/D206A): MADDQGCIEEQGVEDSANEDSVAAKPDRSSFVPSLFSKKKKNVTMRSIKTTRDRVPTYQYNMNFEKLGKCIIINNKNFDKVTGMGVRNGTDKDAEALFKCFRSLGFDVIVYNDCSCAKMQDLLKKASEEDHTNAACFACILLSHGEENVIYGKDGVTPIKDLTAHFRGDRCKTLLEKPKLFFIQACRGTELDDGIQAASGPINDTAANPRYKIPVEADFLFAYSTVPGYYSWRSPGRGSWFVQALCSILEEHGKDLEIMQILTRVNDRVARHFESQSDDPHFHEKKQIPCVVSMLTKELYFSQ
On to `O=C(C1=NN(c2ccccc2)C2C(=O)N(c3ccccc3)C(=O)C12)c1ccccc1` (stereo not given), for which the EC50 (in general, the concentration at which the effect is half-maximal) is > 85.3 µM (inactive). With `COC(=O)C1=NN(c2ccc(Cl)cc2)C2C(=O)N(c3ccccc3OC)C(=O)C12` (stereo not given), the EC50 is > 85.3 µM (inactive). Regarding `COc1ccccc1N1C(=O)C2C(C(=O)c3ccccc3)=NN(c3ccccc3)C2C1=O` (stereo not given), the EC50 was > 85.3 µM (inactive). Regarding `Cc1[nH]nc2c1C(c1c[nH]c3ccccc13)C(C#N)=C(N)O2` (stereo not given), the EC50 is 4.49 µM.

As to `O=C(Nc1ccc(Cc2ccncc2)cc1)C1CCC(N2C(=O)C3C4C=CC(C5CC45)C3C2=O)CC1` (stereo not given), the EC50 was > 85.3 µM (inactive).
